# In US20110070232A1, “Combination Therapy with an Antitumor Alkaloid” (Pharma Mar, S.A., priority 2008, published 2011):
# Like-named read-outs stand apart in the source and are kept apart here.
# Assays:
# Hs746T tumors = format: in vivo, mice; details: for % Inhibition: mg/kg/day: PM00104 0.90 IV, 5-FU 50 at DPI 15 and 100 at DPI 22 & 29 IP
# From the text: Female athymic nude mice (Harlan Sprague Dawley, Madison, Wis.) were utilized for all experiments. Animals were housed in ventilated rack caging with food and water ad libitum. The mice were acclimated for at least 5 days prior to tumor implantation with a tumor cell suspension.
# The tumor model used in these studies was Hs746T cell line, which was obtained from the ATCC (Manassas, Va.).
# Treatments were initiated on DPI 15.
# 5-FU was provided as a solution which was further diluted with water for injection.
# (§1) Tumor size measurements were recorded twice weekly from the treatment initiation until the termination of the study.
# (§2) Mean, standard deviation and standard error of the mean were determined for tumor volume for all animal groups at all assessments. Student's t test was performed on tumor volumes at each measurement day, including at the end of the study, to determine whether there were any statistically significant differences between combination treatment groups and single monotherapy treatment groups.
# MRI-H-254 tumors = format: in vivo, mice; details: for % T/C on day 20 / % T/C on day 23 / % T/C on day 26 / % T/C on day 30 / % T/C on day 34 / % T/C on day 36 / % T/C on day 43 / % T/C on day 49 / % T/C on day 56 / % T/C on day 63: PM00104 0.90 IV, DPI 20, 27, 34
# Procedure: Female athymic nude mice (Harlan Sprague Dawley, Madison, Wis.) were utilized for all experiments. Animals were housed in ventilated rack caging with food and water ad libitum. The mice were acclimated for at least 5 days prior to tumor implantation with tumor fragments.
# Bacterial culture was taken on cells used to implant the study.
# Treatments were initiated on DPI 20.
# 5-FU was provided in the form of injection vials which was diluted with 0.9% sterile Saline.
# as §1, §2
# [1] = PM00104 0.9, 5-FU 50 (DPI 15) then 100 (DPI 22 & 29), irinotecan 20, doxorubicin 6 mg/kg/day
# [2] = 5-FU 100 IP mg/kg/day (G2, G3, G5)
structure (smiles),measurement,setting,value
"O=c1[nH]cc(F)c(=O)[nH]1 [5-FU, 5-fluorouracil]",% T/C on day 15,Hs746T tumors; [1],102.3%
same,% T/C on day 19,Hs746T tumors; [1],96.4%
same,% T/C on day 22,Hs746T tumors; [1],88.0%
same,% T/C on day 26,Hs746T tumors; [1],93.4%
same,% T/C on day 29,Hs746T tumors; [1],94.5%
same,% T/C on day 33,Hs746T tumors; [1],95.3%
same,% Inhibition,Hs746T tumors; day 15,−2.3%
same,% Inhibition,Hs746T tumors; day 19,3.6%
same,% Inhibition,Hs746T tumors; day 22,12.0%
same,% Inhibition,Hs746T tumors; day 26,6.6%
same,% Inhibition,Hs746T tumors; day 29,5.5%
same,% Inhibition,Hs746T tumors; day 33,4.7%
same,% T/C on day 20,"MRI-H-254 tumors; 5-FU 50 IP mg/kg/day (G4, G6)",96.0%
same,% T/C on day 23,"MRI-H-254 tumors; 5-FU 50 IP mg/kg/day (G4, G6)",52.3%
same,% T/C on day 26,"MRI-H-254 tumors; 5-FU 50 IP mg/kg/day (G4, G6)",47.9%
same,% T/C on day 30,"MRI-H-254 tumors; 5-FU 50 IP mg/kg/day (G4, G6)",55.3%
same,% T/C on day 34,"MRI-H-254 tumors; 5-FU 50 IP mg/kg/day (G4, G6)",45.0%
same,% T/C on day 36,"MRI-H-254 tumors; 5-FU 50 IP mg/kg/day (G4, G6)",45.7%
same,% T/C on day 43,"MRI-H-254 tumors; 5-FU 50 IP mg/kg/day (G4, G6)",58.1%
same,% T/C on day 49,"MRI-H-254 tumors; 5-FU 50 IP mg/kg/day (G4, G6)",100.0%
same,% T/C on day 56,"MRI-H-254 tumors; 5-FU 50 IP mg/kg/day (G4, G6)",117.6%
same,% T/C on day 63,"MRI-H-254 tumors; 5-FU 50 IP mg/kg/day (G4, G6)",123.9%
same,% T/C on day 20,MRI-H-254 tumors; [2],101.8%
same,% T/C on day 23,MRI-H-254 tumors; [2],55.2%
same,% T/C on day 26,MRI-H-254 tumors; [2],47.1%
same,% T/C on day 30,MRI-H-254 tumors; [2],36.3%
same,% T/C on day 34,MRI-H-254 tumors; [2],31.6%
same,% T/C on day 36,MRI-H-254 tumors; [2],23.0%
same,% T/C on day 43,MRI-H-254 tumors; [2],30.9%
same,% T/C on day 49,MRI-H-254 tumors; [2],54.6%
same,% T/C on day 56,MRI-H-254 tumors; [2],96.3%
same,% T/C on day 63,MRI-H-254 tumors; [2],107.8%
same,% Inhibition,"MRI-H-254 tumors; day 20, PM00104 0.9 and 5-FU 50 mg/kg/day",4.0%
same,% Inhibition,"MRI-H-254 tumors; day 20, PM00104 0.9 and 5-FU 100 mg/kg/day",−1.8%
same,% Inhibition,"MRI-H-254 tumors; day 23, PM00104 0.9 and 5-FU 50 mg/kg/day",47.7%
same,% Inhibition,"MRI-H-254 tumors; day 23, PM00104 0.9 and 5-FU 100 mg/kg/day",44.8%
same,% Inhibition,"MRI-H-254 tumors; day 26, PM00104 0.9 and 5-FU 50 mg/kg/day",52.1%
same,% Inhibition,"MRI-H-254 tumors; day 26, PM00104 0.9 and 5-FU 100 mg/kg/day",52.9%
same,% Inhibition,"MRI-H-254 tumors; day 30, PM00104 0.9 and 5-FU 50 mg/kg/day",44.7%
same,% Inhibition,"MRI-H-254 tumors; day 30, PM00104 0.9 and 5-FU 100 mg/kg/day",63.7%
same,% Inhibition,"MRI-H-254 tumors; day 34, PM00104 0.9 and 5-FU 50 mg/kg/day",55.0%
same,% Inhibition,"MRI-H-254 tumors; day 34, PM00104 0.9 and 5-FU 100 mg/kg/day",68.4%
same,% Inhibition,"MRI-H-254 tumors; day 36, PM00104 0.9 and 5-FU 50 mg/kg/day",54.3%
same,% Inhibition,"MRI-H-254 tumors; day 36, PM00104 0.9 and 5-FU 100 mg/kg/day",77.0%
same,% Inhibition,"MRI-H-254 tumors; day 43, PM00104 0.9 and 5-FU 50 mg/kg/day",41.9%
same,% Inhibition,"MRI-H-254 tumors; day 43, PM00104 0.9 and 5-FU 100 mg/kg/day",69.1%
same,% Inhibition,"MRI-H-254 tumors; day 49, PM00104 0.9 and 5-FU 50 mg/kg/day",0.0%
same,% Inhibition,"MRI-H-254 tumors; day 49, PM00104 0.9 and 5-FU 100 mg/kg/day",45.4%
same,% Inhibition,"MRI-H-254 tumors; day 56, PM00104 0.9 and 5-FU 50 mg/kg/day",−17.6%
same,% Inhibition,"MRI-H-254 tumors; day 56, PM00104 0.9 and 5-FU 100 mg/kg/day",3.7%
same,% Inhibition,"MRI-H-254 tumors; day 63, PM00104 0.9 and 5-FU 50 mg/kg/day",−23.9%
same,% Inhibition,"MRI-H-254 tumors; day 63, PM00104 0.9 and 5-FU 100 mg/kg/day",−7.8%
